AC40 data for 94 compounds are collected here from PubChem BioAssay AID720513 (Broad Institute, 2013).

Inconclusive results are not listed.

The test system of the assay is U2OS PGC1a acetylation AlphaLISA, overnight. The experiment in a line: activators raising PGC1a acetylation in cells, dose response, cell-based, cherry-picked samples, set 6 (AID 720513).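 Also: cells made to overexpress flag tagged PGC1a plus GCN5 acetyltransferase by viral infection.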
Regarding `COc1ccc(NC(=O)N2CCN(c3ccc([N+](=O)[O-])cc3)CC2)cc1`, the AC40 was 1.52 µM.
To `CCO[C@H]1OC(C(=O)Nc2ccccc2)=C[C@@H](c2csc3ccccc23)[C@@H]1CCCO` belongs 15.7 µM; to `CCOCCn1c(CN(Cc2ccccc2)Cc2ccccc2)nc2c1c(=O)n(C)c(=O)n2C`, 6.65 µM; to `Cc1ccc2c(c1)CC1(CN2C)C(=O)NC(=O)N(C(C)C)C1=O` (centres undefined), 12 µM.
The result for `O=C(CCn1nnc2ccccc21)Nc1nnc(Cc2ccccc2)s1` reads 4.36 µM.
In the case of `COc1ccccc1OCC(=O)Nc1ccc(Cl)cc1C(=O)c1ccccc1`, the AC40 was 7.29 µM.
To `CCOC(=O)c1[nH]c(C)c(C(=O)Nc2cc(OC)ccc2OC)c1C` belongs 13 µM; to `O=C(Nc1ccc2c(c1)OCO2)C1CCN(c2ccc(S(=O)(=O)N3CCOCC3)cc2)CC1`, 9.15 µM; to `CCN(CC)C(=O)CSc1nnc2nnc3cc(Cl)ccc3n12`, 17.9 µM.
On to `COc1ccc(NC(=O)C2(C)Cc3c(-c4cccc(NC(C)=O)c4)ccnc3O2)cc1` (centres undefined), for which the AC40 is 17.1 µM.
Regarding `CC(C)(C)c1ccc(NC(=O)N2CCN(c3ccc([N+](=O)[O-])cn3)CC2)cc1`, the AC40 was below 0.16 µM.
The result for `c1ccc(-c2c(-c3ccccc3)n(Cc3ccco3)c3ncnc(NCCCn4ccnc4)c23)cc1` reads 1.86 µM.
To `CCOC(=S)SCC(=O)Nc1nc(C)c(C)s1` belongs 3.58 µM.
Regarding `COc1ccc(S(=O)(=O)N(Cc2ccccc2)Cc2nc(-c3ccccc3)no2)cc1`, the AC40 is 8.22 µM.
The result for `CCOC(=O)C1(N(CC)CC)Sc2cc(C)ccc2NC1=O` (centres undefined) reads 3.28 µM; that for `CC(=O)CCS(=O)(=O)c1ccc(C)c(C)c1`, 6.64 µM; that for `C[C@@H]1CN([C@@H](C)CO)C(=O)c2c(c3ccccc3n2C)-c2ccccc2CO[C@@H]1CN(C)C(=O)Nc1ccccc1C(F)(F)F`, 6.99 µM.
Turning to `COc1cccc(-c2ccc(C3[C@@H]4CN(Cc5ccccn5)C[C@H]3N4)cc2)c1` (some centres undefined), the AC40 is 13.5 µM.
In the case of `CCCCN(CCCC)S(=O)(=O)c1ccc2oc(C(=O)N3CCOCC3)c(C)c2c1`, the AC40 is 1.79 µM.
To `O=C(NCc1ccc(Cl)cc1)C1CCC(CNc2c(N3CCCC3)c(=O)c2=O)CC1` (centres undefined) belongs 6.36 µM; to `C[C@@H]1CN([C@H](C)CO)C(=O)c2c(c3ccccc3n2C)-c2ccccc2CO[C@@H]1CN(C)C(=O)Nc1cccc(C(F)(F)F)c1`, 10.5 µM.
To `COc1cc(CN2[C@@H]3CNC[C@H]2C3c2ccc(-c3ccccc3)cc2)cc(OC)c1` (some centres undefined) belongs 18.3 µM; to `O=C(Nc1ccccc1-c1ccccc1)NC1CC2CCCC(C1)N2Cc1ccc(F)cc1` (centres undefined), 10.5 µM; to `Nc1ccccc1Oc1ncc(C(F)(F)F)cc1Cl`, 7.04 µM.
To `O=S(=O)(c1ccccc1)N(CC(F)(F)F)c1ccc(C(O)(C(F)(F)F)C(F)(F)F)cc1` belongs 6.8 µM; to `OCc1ccc2c(c1)c(-c1ccc3c(c1)OCCO3)c(-c1ccccc1)n2-c1ccccc1`, 0.184 µM; to `CCCCN(CC)CCCNC(=O)c1cc2c(=O)n(CC)c3ccccc3c2s1`, 1.26 µM.
On to `CC(Sc1nc2ccccc2s1)C(=O)NC1CCCc2ccccc21` (centres undefined), for which the AC40 was 12.4 µM.
On to `Cc1ccccc1-c1ccc(C2[C@@H]3CN(S(=O)(=O)c4ccccc4C)C[C@H]2N3)cc1` (some centres undefined), for which the AC40 was 12.9 µM.
On to `Cc1ccc(OCC(=O)NCCCNC(=O)c2cccnc2)cc1C`, for which the AC40 is 2.1 µM.
To `Cc1ccc(CNC(=O)C2CC(c3ccc([N+](=O)[O-])cc3)=NO2)cc1` (centres undefined) belongs 4 µM.
The result for `COc1cccc(CN2C[C@@H]3N[C@H](C2)C3c2ccc(-c3cccc(C#N)c3)cc2)c1` (some centres undefined) reads 10 µM; that for `Cc1cc(C)nc(NC(=O)c2c(-c3ccccc3Cl)noc2C)n1`, 16.8 µM.
For `Cc1cc(Cn2nc(C(=O)NCc3cccc(C(F)(F)F)c3)cc2-c2ccccc2)on1`, the AC40 was 5.81 µM.
For `Cc1ccc(S(=O)(=O)N2CCN(S(=O)(=O)c3ccc(C)cc3)C2c2ccccc2)cc1`, the AC40 is 2.7 µM.
To `Cc1cccc(C(=O)Nc2ccc(C(=O)/C=C/c3cccnc3)cc2)c1` belongs 2.34 µM.
The result for `COc1ccccc1CN1C[C@@H]2N[C@H](C1)C2c1ccc(-c2ccccc2OC)cc1` (some centres undefined) reads 20.8 µM.
As for `O=C(CCCn1c(=O)[nH]c2cc(Cl)ccc2c1=O)NCCC1=CCCCC1`, the AC40 is 0.371 µM.
With `CCOC(=O)c1nc(S(C)(=O)=O)ncc1Cl`, the AC40 is 1.65 µM.
To `CC(=O)c1ccc(NC(=O)N2CCc3ccccc3C2)cc1` belongs 0.412 µM.
The result for `CCOC(=O)c1c(NC(=O)c2ccoc2C)sc2c1CCC2` reads 13.9 µM; that for `O=[N+]([O-])c1cc(-c2nnc(Nc3ccc(O)cc3)c3ccccc23)ccc1N1CCOCC1`, 2.74 µM.
Regarding `COc1ccc2nc3c(cc2c1)c(NC(=O)c1cccs1)nn3CC(C)C`, the AC40 is 5.35 µM.
Regarding `CC(=O)Nc1nonc1-c1nc2ccccc2n1Cc1ccccc1`, the AC40 is 4.88 µM.
The result for `Cc1ccc(Cl)cc1NC(=O)Cn1nc(-c2cccs2)ccc1=O` reads 4.08 µM.
To `Cc1ccc(NC(=O)c2sccc2SCc2cccc(C(F)(F)F)c2)cc1` belongs 5.13 µM.
To `O=C(Cc1ccccc1)N1CCN(C(=O)c2cccs2)CC1` belongs 10 µM; to `Nc1ccc(N2CCCCC2)cc1N1CCCCC1`, 5.98 µM.
`Cc1cccc2cc(CN(Cc3ccc(F)cc3)Cc3nnnn3C3CCCC3)c(=O)[nH]c12`: the AC40 is 4.14 µM.
To `CCOC(=O)c1c(C)n(C)c2ccc(OCC(O)Cn3nc(C)c(Br)c3C)cc12` (centres undefined) belongs 0.556 µM; to `O=C(Cc1ccccc1)Nc1ccc(NC(=O)c2ccco2)nc1`, 1.44 µM.
Turning to `O=C(c1cc(C2CC2)on1)N1CCCC(N2CCN(c3cccc(C(F)(F)F)c3)CC2)C1` (centres undefined), the AC40 was 10.8 µM.
To `Cc1csc(NC(=O)CSc2nsc(SCC(=O)Nc3nc(C)cs3)c2C#N)n1` belongs 4.36 µM.
The result for `CCOC(=O)c1c(-c2ccc(C)cc2C)csc1NC(=O)CSc1nnnn1C` reads 8.11 µM; that for `Cc1cc(C)c(S(=O)(=O)Nc2ccccc2-c2ccccc2)c(C)c1`, 3.95 µM; that for `COc1ccc(C(CNC(=O)c2cccc(N(C)C)c2)N2CCCC2)cc1` (centres undefined), 5.4 µM.
For the compound `COc1ccc(C)cc1NS(=O)(=O)c1ccc(NC(=O)CN(c2cc([N+](=O)[O-])ccc2C)S(C)(=O)=O)cc1`, the AC40 is 0.426 µM.
The result for `CCC(CC)C(=O)c1c[nH]c(C(=O)NCc2ccccc2)c1` reads 0.689 µM.
To `CO[C@@H]1CN(C)C(=O)c2cc(NC(=O)c3ccc(Oc4ccccc4)cc3)ccc2OC[C@@H](C)NC[C@@H]1C` belongs 15.2 µM; to `COC(=O)c1c(NC(=O)COC(=O)[C@@H](NS(=O)(=O)c2ccccc2)C(C)C)sc2c1CCC2`, 13.5 µM; to `CCCCC(=O)Nc1ccc(NC(=O)c2cccs2)cn1`, 18.9 µM.
The result for `O=C(NCCC1CCCCN1S(=O)(=O)c1cccs1)C(=O)Nc1ccc(F)cc1F` (centres undefined) reads 9.6 µM; that for `CCCCCOC(=O)Cc1c(O)c2ccccc2n(C)c1=O`, 9.64 µM; that for `c1ccc(N2CCN(c3ccccc3)C2c2ccncc2)cc1`, 0.244 µM.
With `CCOc1ccc(N(C)S(=O)(=O)c2cc(-c3cc(C)no3)ccc2C(C)C)cc1`, the AC40 is 2.97 µM.
The result for `CCn1c(SCC(=O)Nc2ccc(NC(=O)c3ccco3)cc2)nnc1-c1cccs1` reads 1.7 µM.
The result for `COc1ccc(C2CC(=O)N(C)c3ccccc3S2)cc1` (centres undefined) reads 6.61 µM.
As for `COc1ccc(Nc2nnc(-c3ccc(C(=O)NCCO)cc3)c3ccccc23)cc1`, the AC40 was 3.07 µM.
As to `CC(=O)c1ccc(OCC(=O)OCC(=O)Nc2sccc2C(N)=O)cc1`, the AC40 was 6.46 µM.
The result for `Cc1ccc(S(=O)(=O)CCSC(=N)N)cc1` reads 5.17 µM.
To `COc1ccccc1/C=C1\SC(=S)N(CCC(=O)NCCCn2ccnc2)C1=O` belongs 2.88 µM; to `Cc1ccc(OC(=O)N(C)C[C@H]2OCc3ccccc3-c3c(n(C)c4ccccc34)C(=O)N([C@@H](C)CO)C[C@H]2C)cc1`, 4.98 µM.
In the case of `O=C(NCc1ccccc1)C1Cc2c(-c3ccc(Cl)cc3)ccnc2O1` (centres undefined), the AC40 is 6.16 µM.
The result for `COc1ccc(CCNC(=O)COc2ccc(S(=O)(=O)N3CCCC3)cc2)cc1` reads 19.3 µM; that for `CSc1nn(-c2ccc(C(=O)OC(C(=O)NC(N)=O)C(C)C)cc2)c(=S)s1` (centres undefined), 4.42 µM; that for `Oc1ccc(C[C@@H]2CNCCN2CCC23CC4CC(CC(C4)C2)C3)cc1`, 6.79 µM.
For the compound `CCOC(=O)c1c(CN2CCN(CC#N)CC2)n(C)c2cc(Br)c(OC)cc12`, the AC40 is 0.701 µM.
With `CNC(=O)c1nnsc1S(=O)c1ccc(Cl)cc1` (centres undefined), the AC40 is 1.96 µM.
As for `O=S(=O)(c1ccc(Cl)cc1)N1[C@@H]2CNC[C@H]1C2c1ccc(-c2cccc(F)c2)cc1` (some centres undefined), the AC40 was below 2.6 µM.
On to `COc1ccc(Cc2nc(-c3ccc(NC(=O)c4cccnc4)cc3)no2)cc1`, for which the AC40 is 0.991 µM.
To `CSCCC(c1nnnn1-c1c(C)cccc1C)N1CCC2(CC1)C(=O)NCN2c1ccccc1` (centres undefined) belongs 4.64 µM; to `CCOC(=O)C(C)n1cnc2c(nnn2-c2ccc(C)cc2)c1=O` (centres undefined), 2.7 µM.
The result for `CCN(CC)CCCn1c(=S)[nH]c2cc(Cl)ccc2c1=O` reads 0.631 µM; that for `O=C(CC1SC(=Nc2ccc3c(c2)OCCO3)NC1=O)Nc1ccc(F)cc1F` (centres undefined), 0.191 µM; that for `C=CCn1c(=NC(=O)c2ccc(S(=O)(=O)N3CCCC3)cc2)sc2cc(NC(C)=O)ccc21`, 12.3 µM.
With `Cc1ccc(NC(=O)CN2CCC(NC(=O)Cc3ccccc3)CC2)c(C)c1`, the AC40 was 0.507 µM.
The result for `Cc1cccc(Oc2nccc(C(F)(F)F)c2C(=O)Nc2ccc(F)cc2F)c1` reads 11.9 µM; that for `COc1ccc([N+](=O)[O-])cc1NCc1ccccc1`, 2.95 µM.
Turning to `O=C(Cc1ccccc1)Nc1cccc(-c2nc3ncccc3o2)c1`, the AC40 was 2.71 µM.
To `COc1ccc(CN2CCn3ncc(C(=O)Nc4ccccc4)c3C2=O)cc1` belongs 13.4 µM; to `COc1ccc(Nc2nnc(C)c3ccccc23)cc1`, 5.12 µM; to `COc1cccc(C(=O)c2c[nH]c(C(=O)NCc3cccnc3)c2)c1`, 1.4 µM.
The result for `CC12CCC(C1)C(C)(C)C2NS(=O)(=O)c1ccc(F)cc1` (centres undefined) reads 5.98 µM.
To `CCC(=O)N(CC)c1nc(-c2ccc(OC)cc2)cs1` belongs 3.53 µM.
